{"source": "patent US7354926B2", "about": "“Molecules derived from noraporphine” (Sederma SAS, priority 2002, dated 2008)", "key": {"[1]": {"tested_on": "normal human melanocytes (MHN)", "test": "Inhibition of melanin synthesis (in vitro) in culture of normal human melanocytes", "assay_type": "cell-based", "details": "7 days of exposure, various concentrations, vs control cells, normalized on protein content", "description": "The efficacy of the products on melanization was tested in culture of normal human melanocytes (MHN). This culture medium is conventionally used to test variations in melanin levels. The cells are incubated in the presence of the test product for 7 days while the control cells are incubated in the culture medium alone.\nAfter 7 days, the total melanin (phaeomelanin and eumelanin) present in the cells is determined after cell lysis and dissolution in sodium hydroxide, the assay is colorimetric.\nThe melanin level produced under exposure to the test product at various concentrations are compared to those obtained with the control cells. The data are normalized on the protein content of the sample.\nThe inhibition of synthesis observed after 7 days of exposure to those products is dependent on the test concentration. Inhibition varies from −28 to −51%."}, "[2]": {"tested_on": "G-3-PDH (Glycerol-3-Phosphate deshydrogenase) activity in fibroblasts 3T3 L1 / pre-adipocytes", "test": "Inhibition of lipogenesis (in vitro): G-3-PDH activity in differentiating 3T3 L1 pre-adipocytes", "assay_type": "cell-based", "details": "for ACTIVITY G-3-PDH/10^−6 cells (inhibition in % of the witness): average of 3 independent tests", "description": "The following test is based on the fact that a cocktail from substances (hormonal messengers) induce the fibroblasts 3T3 L1 differentiation, in culture, into pre-adipocytes then in adipocytes charged with lipids.\nThe culture proceeds in three stages: cellular multiplication until confluence, addition of cocktail of differentiation (stage during which the initial pre-adipocytes are obtained (72 hours), then active differentiation with lipogenesis stimulation (approximately 72 hours) at the end of which apparent storage in lipidic droplets is then definitely visible under microscope.\nThe enzyme G-3-PDH (Glycerol-3-Phosphate deshydrogenase), essential to triglyceride synthesis is expressed very strongly during this active stage of lipidic storage.\nThe product to be tested is added at the second step.\nAfter the incubation period the G-3-PDH activity is compared between the pre-adipocytes witnesses and those incubated in the presence of the tested product. Under these conditions, a product which inhibits the lipogenesis causes a fall of the G-3-PDH activity.\nAfter the induced differentiation, the solution to test is added to the culture of pre-adipocytes, here a 2,9-diacetyloxy-1,10-dimethoxy-6-methyl-noraporphine solution (compound II). In parallel, two witness cultures, one in negative and the other in positive are carried out.\nAt the end of the incubation, the cells are taken and lysed and the test is carried out on the intracellular contents.\nThe G-3-PDH activity is measured by NADH disappearance (λ=340 nm).\nThe enzymatic activity values are standardized with the number of cells."}, "[3]": {"test": "Inhibition of peroxidation induced on liposomes by UVA", "details": "for Inhibition perox. UVA: UVA 10 J/cm^2, 45° C., 24 hours, combined dienes", "description": "(§1) In order to seek an antioxidant activity, we evaluated 2,9-diacetyloxy-1,10-dimethoxy-6-methyl-noraporphine (compound II) effect on the inhibition of peroxidation induced on liposomes by UVA or pair HO2/FeCl2.\n(§2) The liposomes, once manufactured, receive the products to be tested in solution. Then they are put under UVA lamp and are irradiated to 10 J/cm^2. The liposomes are incubated at 45° C. After 24 hours, the lipidic peroxidation is quantified by estimating the rate of combined dienes markers. The effect of the product is compared with negative control."}, "[4]": {"test": "Inhibition of peroxidation induced on liposomes by HO2/FeCl2 (Fenton reaction)", "details": "0.06 mmol/l; similar protocol with HO2/FeCl2 added to the liposomes", "description": "as §1, §2\nA strong inhibition (−60% with 0.06 mmol/l) is also obtained in a similar protocol when HO2/FeCl2. is added (Fenton reaction) to the solution of liposomes."}}, "data": [{"smiles": "COc1cc2c(cc1OC(C)=O)CC1c3c(cc(OC(C)=O)c(OC)c3-2)CCN1C", "note": "(centres unmarked) [compound II, 2,9-diacetyloxy-1,10-dimethoxy-6-methyl-noraporphine]", "values": [{"measurement": "Inhibition of melanin synthesis", "setting": "[1]", "result": "−28 to −51", "unit": "%"}, {"measurement": "ACTIVITY G-3-PDH/10^−6 cells (inhibition in % of the witness)", "setting": "[2]; 0.03 mmol/l", "result": "−49", "unit": "%"}, {"measurement": "ACTIVITY G-3-PDH/10^−6 cells (inhibition in % of the witness)", "setting": "[2]; 0.06 mmol/l", "result": "−67", "unit": "%"}, {"measurement": "Morphology of the preadipocytes under microscope", "setting": "[2]; compared to witness cells", "result": "few lipidic inclusions"}, {"measurement": "Inhibition perox. UVA", "setting": "[3]; 0.03 mmol/l", "result": "−93", "unit": "%"}, {"measurement": "Inhibition perox. UVA", "setting": "[3]; 0.06 mmol/l", "result": "−87", "unit": "%"}, {"measurement": "Inhibition perox. UVA", "setting": "[3]; 0.09 mmol/l", "result": "−89", "unit": "%"}, {"measurement": "Inhibition perox. UVA", "setting": "[3]; 0.15 mmol/l", "result": "≈−100%"}, {"measurement": "Inhibition perox. UVA", "setting": "[3]; 0.30 mmol/l", "result": "≈−100%"}, {"measurement": "Inhibition of lipidic peroxidation UVA induced (in words)", "setting": "[3]; with the tested concentrations (0.03-0.30 mmol/l)", "result": "almost completely inhibits"}, {"measurement": "Inhibition of peroxidation, HO2/FeCl2 (Fenton reaction)", "setting": "[4]", "result": "−60", "unit": "%"}]}]}
